This is an account of results in ChEMBL document CHEMBL2057166, “Discovery of novel hedgehog antagonists from cell-based screening: Isosteric modification of p38 bisamides as potent inhibitors of SMO” (Bioorg Med Chem Lett, 2012).

Each structure is given as a SMILES string.

Broadly, the half-life is the time in which the quantity being followed falls by half. The AUC is the area under the concentration-time curve, a measure of exposure. Low values mean low exposure, high ones high exposure. Usually bioavailability stands for dose-corrected exposure relative to a reference, in per cent.

Assay type in all cases: ADME, organism-based
Series [1] is described as follows: Half life in CD-1 mouse at 3 mg/kg, iv. On the set-up: dose 3 mg/kg, route intravenous. Particulars: in vivo.
Series [2] in a line: AUC in CD-1 mouse at 10 mg/kg, po. On the set-up: dose 10 mg/kg, route oral. Particulars: plasma.
Series [3] can be described thus: Oral bioavailability in CD-1 mouse at 10 mg/kg. Particulars: in vivo.
Series [4] in a line: Clearance in CD-1 mouse at 3 mg/kg, iv and 10 mg/kg, po. Particulars: in vivo.
A short description of series [5]: Volume of distribution at steady state in CD-1 mouse at 3 mg/kg, iv and 10 mg/kg, po. Particulars: in vivo, read-out: Vdss.

Consider `Cc1ccc(-c2ncc(C)n2C)cc1NC(=O)c1ccc(OCc2ccccn2)cc1`, for which the half-life in series [1] was 54 min. Besides, the AUC in series [2] is 100 ng·h/mL. In series [3], this molecule displayed a bioavailability of 22%. Moreover, the clearance in series [4] was 210 mL/min/kg. Besides, the Vd in series [5] worked out at 12 L/kg.

Molecule `Cc1ccc(-c2ncc[nH]2)cc1NC(=O)c1ccc(OCc2ccccn2)cc1` showed a half-life in series [1] of 60 min. The same molecule showed an AUC in series [2] of 12500 ng·h/mL. Further, the bioavailability in series [3] is 83%. The clearance in series [4] turned out to be 8.3 mL/min/kg. In addition, the Vd in series [5] was 0.5 L/kg.
